Results published in PubChem BioAssay (NCI).
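Briefly, cells in 96-well plates were exposed to five compound concentrations for 48 h, and endpoints were estimated by linear interpolation. The concentration for 50% growth inhibition is given as GI50. The concentration for full growth arrest is given as TGI.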

What was measured:
Experiment in all cases: inhibition of tumour cell growth, NCI panel, 48 h
[1] = system: A549 NSCLC
[2] = system: COLO 205 colon
[3] = system: MALME-3M melanoma
[4] = system: NCI-H460 lung
[5] = system: OVCAR-5 ovarian
[6] = system: OVCAR-8 ovarian
[7] = system: SF-539 CNS
[8] = system: SK-MEL-28 melanoma
[9] = system: U251 CNS
[10] = system: PC-3 prostate

O=[N+]([O-])c1cc(/C=N/NS(=O)(=O)c2ccc(F)cc2)c(O)c([N+](=O)[O-])c1
TGI [1]: > 100 µM | TGI [2]: 34.5 µM | TGI [3]: > 100 µM | TGI [4]: 84 µM | TGI [5]: > 100 µM | TGI [6]: 57.4 µM | TGI [7]: 43.9 µM | TGI [8]: > 100 µM | TGI [9]: 44.7 µM

CC12OC3CC(O1)C1(C=O)C4CCC5(C)C(c6ccc(=O)oc6)CCC5(O)C4CCC1(C3)O2 (configuration not stated)
TGI [1]: 0.194 µM | TGI [2]: 1.69 µM | TGI [3]: 0.51 µM | TGI [4]: 0.159 µM | TGI [5]: 1.19 µM | TGI [6]: 1.2 µM | TGI [7]: 0.228 µM | TGI [8]: 1.49 µM | TGI [9]: 1.24 µM

O=C1CCC(=O)C(C(=O)CCC(=O)Nc2cccc(Cl)c2)C1 (configuration not stated)
TGI [1]: > 100 µM | TGI [2]: > 100 µM | TGI [3]: > 100 µM | TGI [4]: > 100 µM | TGI [5]: > 100 µM | TGI [6]: > 100 µM | TGI [7]: > 100 µM | TGI [9]: > 100 µM

CCS/C(Nc1ccccc1)=C(\C#N)C(=O)N/N=C/c1ccc(Cl)cc1Cl
GI50 [1]: 4.63 µM | TGI [1]: > 100 µM | GI50 [3]: 9.3 µM | TGI [3]: > 100 µM | GI50 [4]: 3.16 µM | TGI [4]: > 100 µM | GI50 [5]: 8.25 µM | TGI [5]: > 100 µM | GI50 [6]: 4.81 µM | TGI [6]: > 100 µM | GI50 [7]: 2.89 µM | TGI [7]: 20.6 µM | GI50 [8]: 23.6 µM | TGI [8]: > 100 µM | GI50 [9]: 3.95 µM | TGI [9]: > 100 µM

NC(=O)CCC(NC(=O)C(F)(F)F)C(=O)O (configuration not stated)
TGI [1]: > 100 µM | TGI [2]: > 100 µM | TGI [3]: > 100 µM | TGI [4]: > 100 µM | TGI [5]: > 100 µM | TGI [6]: > 100 µM | TGI [7]: > 100 µM | TGI [8]: > 100 µM | TGI [9]: > 100 µM

Cc1cc(C)c2[s+]snc2c1
TGI [1]: > 100 µM | TGI [2]: > 100 µM | TGI [3]: > 100 µM | TGI [4]: > 100 µM | TGI [5]: > 100 µM | TGI [6]: > 100 µM | TGI [7]: > 100 µM | TGI [8]: > 100 µM | TGI [9]: > 100 µM

COc1cc(/C=C/C(=O)c2ccc(Nc3nc(Nc4ccccc4)nc(Nc4ccc(Cl)cc4)n3)cc2)cc(OC)c1OC
GI50 [1]: > 32.5 µM | TGI [1]: > 32.5 µM | GI50 [2]: 8.55 µM | TGI [2]: > 32.5 µM | GI50 [3]: 9.71 µM | TGI [3]: > 32.5 µM | GI50 [4]: 8.71 µM | TGI [4]: > 32.5 µM | GI50 [5]: 10.4 µM | TGI [5]: > 32.5 µM | GI50 [6]: 3.34 µM | TGI [6]: > 32.5 µM | GI50 [7]: 6.84 µM | TGI [7]: 16.2 µM | GI50 [8]: 14.5 µM | TGI [8]: > 32.5 µM | GI50 [9]: 4.62 µM | TGI [9]: > 32.5 µM

OC1C2C=CCC1CCC2 (configuration not stated)
TGI [1]: > 100 µM | TGI [2]: > 100 µM | TGI [3]: > 100 µM | TGI [4]: > 100 µM | TGI [5]: > 100 µM | TGI [6]: > 100 µM | TGI [7]: > 100 µM | TGI [8]: > 100 µM | TGI [9]: > 100 µM

CCOC(=O)C1(Cc2ccc3ccccc3c2)CCCCCN1 (configuration not stated)
TGI [1]: > 100 µM | TGI [2]: 34.4 µM | TGI [3]: 33.9 µM | TGI [4]: 34.7 µM | TGI [6]: > 100 µM | TGI [8]: 88.9 µM | TGI [9]: > 100 µM

O=C(Nc1ccc(S(=O)(=O)NC2CCCCCC2)cc1)C(c1ccccc1)S(=O)(=O)c1ccc(F)cc1 (configuration not stated)
GI50 [1]: 0.854 µM | TGI [1]: 2.9 µM | GI50 [3]: 0.25 µM | TGI [3]: 1.81 µM | GI50 [4]: 0.0367 µM | TGI [4]: 1.1 µM | GI50 [5]: 0.374 µM | TGI [5]: 3.15 µM | GI50 [6]: 0.702 µM | TGI [6]: 4.68 µM | GI50 [10]: 0.295 µM | TGI [10]: 2.19 µM | GI50 [7]: 0.389 µM | TGI [7]: 1.88 µM | GI50 [8]: 0.245 µM | TGI [8]: 1.02 µM | GI50 [9]: 0.51 µM | TGI [9]: 3.57 µM
